Measurements reported in PubChem BioAssay AID1963858 (Molecular Pharmacology Branch, DTP, NCI, 2024).

Test system: HOP-62 multicell spheroids with HUVEC/MSC, viability
Assay: Anticancer human tumor HOP-62 cell line growth inhibition [KRAS2];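 note: viability read after a week of compound exposure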;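 for viability, T/C: 100% = DMSO vehicle-treated spheroids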
Settings: for IC50: curve of first compound; for viability, T/C: stronger effect = lower value
In short: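 KRAS-mutant tumor cells were grown as spheroids with HUVEC endothelial cells and human MSCs as stroma. Targeted agents were tested alone and with KRAS pathway inhibitors. Doses started at or near clinical Cmax, or 10 microM, descending half-log.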

[1] = second compound 0.1 µM, first compound 0.0316 µM
[2] = second compound 0.1 µM, first compound 0.1 µM
[3] = second compound 0.1 µM, first compound 0.316 µM
[4] = second compound 0.1 µM, first compound 1 µM
[5] = second compound 0.1 µM, first compound 3.16 µM
[6] = second compound 0.316 µM, first compound 0.0316 µM
[7] = second compound 0.316 µM, first compound 0.1 µM
[8] = second compound 0.316 µM, first compound 0.316 µM
[9] = second compound 0.316 µM, first compound 1 µM
[10] = second compound 0.316 µM, first compound 3.16 µM
[11] = second compound 1 µM, first compound 0.0316 µM
[12] = second compound 1 µM, first compound 0.1 µM
[13] = second compound 1 µM, first compound 0.316 µM
[14] = second compound 1 µM, first compound 1 µM
[15] = second compound 1 µM, first compound 3.16 µM
[16] = second compound 3.16 µM, first compound 0.0316 µM
[17] = second compound 3.16 µM, first compound 0.1 µM
[18] = second compound 3.16 µM, first compound 0.316 µM
[19] = second compound 3.16 µM, first compound 1 µM
[20] = second compound 3.16 µM, first compound 3.16 µM
[21] = second compound 10 µM, first compound 0.0316 µM
[22] = second compound 10 µM, first compound 0.1 µM
[23] = second compound 10 µM, first compound 0.316 µM
[24] = second compound 10 µM, first compound 1 µM
[25] = second compound 10 µM, first compound 3.16 µM
[26] = second compound 0.1 µM, first compound 10 µM
[27] = second compound 0.316 µM, first compound 10 µM
[28] = second compound 1 µM, first compound 10 µM
[29] = second compound 3.16 µM, first compound 10 µM
[30] = second compound 10 µM, first compound 10 µM

| Structure (SMILES) | IC50 (second compound 0.1 µM) | IC50 (second compound 0.316 µM) | IC50 (second compound 1 µM) | IC50 (second compound 3.16 µM) | IC50 (second compound 10 µM) | viability, T/C [1] | viability, T/C [2] | viability, T/C [3] | viability, T/C [4] | viability, T/C [5] | viability, T/C [6] | viability, T/C [7] | viability, T/C [8] | viability, T/C [9] | viability, T/C [10] | viability, T/C [11] | viability, T/C [12] | viability, T/C [13] | viability, T/C [14] | viability, T/C [15] | other results |
| --- | --- | --- | --- | --- | --- | --- | --- | --- | --- | --- | --- | --- | --- | --- | --- | --- | --- | --- | --- | --- | --- |
| CC1COCCN1c1cc(-c2ccnn2C)c2ccnc(-c3ccn[nH]3)c2n1 (stereo not given) + CNCc1ccccc1-c1csc(C(C)Nc2nc(C)nc3cc(OC)c(OC)cc23)c1 | 54.9 nM | 61.1 nM | 36.9 nM | < 10 nM | < 10 nM | 73.1% | 25.3% | 13.5% | 14% | 16.4% | 78.8% | 28.7% | 14.2% | 15.2% | 14.3% | 53.9% | 25.2% | 17.4% | 14.7% | 12.8% | viability, T/C (second compound 0.1 µM, first compound 0.01 µM): 106%; viability, T/C (second compound 0.316 µM, first compound 0.01 µM): 106%; viability, T/C (second compound 1 µM, first compound 0.01 µM): 94.9%; viability, T/C (second compound 3.16 µM, first compound 0.01 µM): 3.68%; viability, T/C [16]: 0.24%; viability, T/C [17]: 2.16%; viability, T/C [18]: 0.06%; viability, T/C [19]: 0.06%; viability, T/C [20]: 0.27%; viability, T/C (second compound 10 µM, first compound 0.01 µM): 0.1%; viability, T/C [21]: 0.64%; viability, T/C [22]: 0.08%; viability, T/C [23]: 0.09%; viability, T/C [24]: 0.58%; viability, T/C [25]: 0.16% |
| CCNC(=O)CC1N=C(c2ccc(Cl)cc2)c2cc(OC)ccc2-n2c(C)nnc21 (stereo not given) + CNCc1ccccc1-c1csc(C(C)Nc2nc(C)nc3cc(OC)c(OC)cc23)c1 | 438 nM | 245 nM | 136 nM | < 31.6 nM | < 31.6 nM | 103% | 74.4% | 52.3% | 43.1% | 37.3% | 92.3% | 72% | 44.7% | 30.9% | 33.6% | 86% | 54.3% | 38.2% | 29.7% | 28.1% | viability, T/C [26]: 35.1%; viability, T/C [27]: 32.6%; viability, T/C [28]: 28.6%; viability, T/C [16]: 0.15%; viability, T/C [17]: 0.21%; viability, T/C [18]: 0.07%; viability, T/C [19]: 0.06%; viability, T/C [20]: 0.06%; viability, T/C [29]: 0.13%; viability, T/C [21]: 0.1%; viability, T/C [22]: 0.09%; viability, T/C [23]: 0.1%; viability, T/C [24]: 0.09%; viability, T/C [25]: 0.23%; viability, T/C [30]: 0.17% |
| Cn1nccc1Nc1nccc(-c2cc3c(s2)C(C)(C)N(CCN2CCOCC2)C3=O)n1 + CNCc1ccccc1-c1csc(C(C)Nc2nc(C)nc3cc(OC)c(OC)cc23)c1 | 1220 nM | 859 nM | 646 nM | < 31.6 nM | < 31.6 nM | 110% | 102% | 92.8% | 52.5% | 34.6% | 104% | 98.3% | 77.1% | 47.5% | 25.3% | 101% | 99% | 68.3% | 39.6% | 27.6% | viability, T/C [26]: 28.3%; viability, T/C [27]: 26.9%; viability, T/C [28]: 27.1%; viability, T/C [16]: 1.01%; viability, T/C [17]: 2.12%; viability, T/C [18]: 0.23%; viability, T/C [19]: 0.16%; viability, T/C [20]: 0.1%; viability, T/C [29]: 0.18%; viability, T/C [21]: 0.19%; viability, T/C [22]: 0.19%; viability, T/C [23]: 0.2%; viability, T/C [24]: 0.2%; viability, T/C [25]: 0.22%; viability, T/C [30]: 0.23% |
